Test results from ChEMBL document CHEMBL3638971, “Fused pyrimidines” (2015).
“And” between values parts separate entries of the source, which are not always exact repeats. Equal values may be shown once.

Experiments:
[1] = molecular target: RAC-alpha serine/threonine-protein kinase (Homo sapiens, UniProt P31749); assay: TR-FRET Assay: Akt1 inhibitory activity of compounds of the present invention may be quantified0 employing the Akt1 TR-FRET assay as described in the following paragraphs. His-tagged human recombinant kinase full-length Akt1 expressed in insect cells was purchased form Invitrogen (part number PV 3599). As substrate for the kinase reaction the biotinylated peptide biotin-Ahx-KKLNRTLSFAEPG (C-terminus in am- ide form) was used which can be purchased e.g. from the company Biosynthan GmbH (Berlin-Buch, Germany).For the assay 50 nl of a IOOfold concentrated solution of the test compound in DMSO was pipetted into a black low volume 384well microtiter plate (Greiner Bio- One, Frickenhausen, Germany), 2 ul of a solution of Akt1 in assay buffer [50 mM TRIS/HCI pH 7.5, 5 mM MgCI2, 1 mM dithiothreitol, 0.02% (v/v) Triton X-100 (Sigma)] were added and the mixture was incubated for 15 min at 22C to allow pre-binding of the test compounds to the enzyme before the start of the kinase reaction.
[2] = molecular target: RAC-beta serine/threonine-protein kinase (Homo sapiens, UniProt P31751); assay: TR-FRET Assay: Akt2 inhibitory activity of compounds of the present invention was quantified employing the Akt2 TR-FRET assay as described in the following paragraphs.His-tagged human recombinant kinase full-length Akt2 expressed in insect cells and activated by PDK1 was purchased form Invitrogen (part number PV 3975). As substrate for the kinase reaction the biotinylated peptide biotin-Ahx- KKLNRTLSFAEPG (C-terminus in amide form) was used which can be purchased e.g. from the company Biosynthan GmbH (Berlinn-Buch, Germany). For the assay 50 nl of a 10Ofold concentrated solution of the test compound in DMSO was pipetted into a black low volume 384well microtiter plate (Greiner Bio- One, Frickenhausen, Germany), 2 ul of a solution of Akt2 in assay buffer [50 mM TRIS/HCI pH 7.5, 5 mM MgCI2, 1 mM dithiothreitol, 0.02% (v/v) Triton X-100 (Sigma)] were added and the mixture was incubated for 15 min at 22C to allow pre-binding of the test compounds to the enzyme before the start of the kinase reaction.
RAC-beta serine/threonine-protein kinase, sequence (P31751 whole entry): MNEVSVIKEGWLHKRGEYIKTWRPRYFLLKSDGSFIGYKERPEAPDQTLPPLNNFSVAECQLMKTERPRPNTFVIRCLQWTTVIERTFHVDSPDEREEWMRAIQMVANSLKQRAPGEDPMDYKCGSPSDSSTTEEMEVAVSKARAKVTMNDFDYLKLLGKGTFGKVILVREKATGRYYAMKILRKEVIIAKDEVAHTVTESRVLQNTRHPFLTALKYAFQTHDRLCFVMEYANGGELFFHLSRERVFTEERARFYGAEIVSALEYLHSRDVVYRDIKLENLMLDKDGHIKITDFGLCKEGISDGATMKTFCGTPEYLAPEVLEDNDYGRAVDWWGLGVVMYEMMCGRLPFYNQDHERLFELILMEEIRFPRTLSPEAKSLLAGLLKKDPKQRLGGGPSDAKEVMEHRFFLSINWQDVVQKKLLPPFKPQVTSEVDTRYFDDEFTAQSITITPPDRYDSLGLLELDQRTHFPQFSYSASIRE

RAC-alpha serine/threonine-protein kinase, sequence (P31749 whole entry): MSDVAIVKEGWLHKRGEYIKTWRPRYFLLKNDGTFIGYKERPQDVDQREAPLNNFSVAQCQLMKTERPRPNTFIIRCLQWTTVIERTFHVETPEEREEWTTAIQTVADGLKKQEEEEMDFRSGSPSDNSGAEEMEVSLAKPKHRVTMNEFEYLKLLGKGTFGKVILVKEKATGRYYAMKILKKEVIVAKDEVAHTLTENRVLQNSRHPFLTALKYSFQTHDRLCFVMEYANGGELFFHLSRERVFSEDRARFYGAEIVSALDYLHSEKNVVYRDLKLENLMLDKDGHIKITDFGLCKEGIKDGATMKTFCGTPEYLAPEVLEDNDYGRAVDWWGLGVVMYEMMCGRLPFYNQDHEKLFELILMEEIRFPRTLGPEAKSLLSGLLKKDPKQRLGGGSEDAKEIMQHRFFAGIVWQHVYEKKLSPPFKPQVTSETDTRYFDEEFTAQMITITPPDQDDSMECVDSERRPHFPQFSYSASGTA

| SMILES | IC50 [1] | IC50 [2] |
| --- | --- | --- |
| Cc1cccc(-c2nc(C3CN(Cc4ccc(-c5nc6nc(C)nn6c(C)c5-c5ccccc5)cc4)C3)n[nH]2)n1 | 10 nM | 8 nM |
| Cc1nc2nc(-c3ccc(CN4CC(c5n[nH]c(-c6ccccn6)n5)C4)cc3)c(-c3ccccc3)c(NC3CCC3)n2n1 | 32 nM | 374 nM |
| CNc1c(-c2ccccc2)c(-c2ccc(CN3CC(c4n[nH]c(-c5cccc(C)n5)n4)C3)cc2)nc2nc(C)nn12 | 11 nM | 21 nM |
| Cc1nc2nc(-c3ccc(CN4CC(c5n[nH]c(-c6ccccn6)n5)C4)cc3)c(-c3ccccc3)c(NC(C)C)n2n1 | 15 nM and 9 nM | 31 nM and 20 nM |
| CS(=O)(=O)c1nc2nc(-c3ccc(CN4CCC(c5n[nH]c(-c6ccccn6)n5)CC4)cc3)c(-c3ccccc3)cn2n1 | 54 nM | 102 nM |

Second part, the compound after the results:

| IC50 [1] | IC50 [2] | SMILES |
| --- | --- | --- |
| 7 nM | 17 nM | Cc1nc2nc(-c3ccc(CN4CC(c5n[nH]c(-c6ccccn6)n5)C4)cc3)c(-c3ccccc3)c(C)n2n1 |
| 5 nM | 100 nM | CSc1nc2nc(-c3ccc(CN4CC(c5n[nH]c(-c6ccccn6)n5)C4)cc3)c(-c3ccccc3)cn2n1 |
| 7 nM | 12 nM | CSc1nc2nc(-c3ccc(CN4CCC(c5n[nH]c(-c6ccccn6)n5)CC4)cc3)c(-c3ccccc3)cn2n1 |
| 5 nM | 4 nM | CSc1nc2nc(-c3ccc(CN4CCC(c5n[nH]c(-c6cccc(C)n6)n5)CC4)cc3)c(-c3ccccc3)cn2n1 |
